Measurements from ChEMBL document CHEMBL4138052, “Synthesis, characterization, solubilization, cytotoxicity and antioxidant activity of aminomethylated dihydroquercetin” (Medchemcomm, 2017).
In brackets after ≈: the same amount, converted by molar mass. Activity calls are given as the source filed them. The calls are words filed in the database; no cut-off is given here.

Key:
[1] = Thermal stability of the compound assessed as drug degradation by measuring compound weight loss at 30 to 100 degC; format: physicochemical; settings: read-out: Drug degradation
[2] = Thermal stability of the compound assessed as drug degradation by measuring compound weight loss at 247 to 600 degC; format: physicochemical; settings: read-out: Drug degradation
[3] = Solubility in water at pH 5.7 under nitrogen and sheltered from light condition incubated for 1 hr; format: physicochemical
[4] = Dissolution of the compound at 0.12 mg measured at 38 mins by UV spectrophotometry; format: physicochemical
[5] = Solubility in PBS using micronized compound measured at 60 mins; format: physicochemical
[6] = tested on: HEK293; experiment: Cytotoxicity in HEK293 cells assessed as reduction in cell survival incubated for 48 hrs by MTT assay; format: cell-based; settings: Homo sapiens, HEK293, 48 h
[7] = Safety index, ratio of EC50 for aristolochic acid to EC50 for test compound for cytotoxicity in HEK293 cells assessed as reduction in cell survival incubated for 48 hrs by MTT assay; format: cell-based; settings: human, read-out: Ratio EC50
[8] = tested on: HEK293; experiment: Stimulation of cell growth in HEK293 cells assessed as increase in cell survival at 2 to 360 uM incubated for 48 hrs by MTT assay; format: functional, cell-based; settings: Homo sapiens
[9] = tested on: HEK293; experiment: Stimulation of cell growth in HEK293 cells assessed as cell growth rate at 200 uM incubated for 48 hrs by MTT assay; format: functional; settings: Homo sapiens, HEK293, 48 h; read-out: Activity
[10] = tested on: HeLa; experiment: Cytotoxicity in human HeLa cells assessed as reduction in cell survival incubated for 48 hrs by MTT assay; format: functional, cell-based
[11] = Antioxidant activity assessed as DPPH radical scavenging activity at 0.03 to 0.06 mM incubated for 30 mins; format: functional
[12] = Antioxidant activity assessed as DPPH radical scavenging activity at 0.09 mM incubated for 30 mins; format: functional
[13] = Antioxidant activity assessed as DPPH radical scavenging activity using micronized compound; format: functional
[14] = Antioxidant activity assessed as ABTS radical scavenging activity at 0.1 mM incubated for 6 mins by spectrophotometry; format: functional
[15] = Antioxidant activity assessed as ABTS radical scavenging activity incubated for 6 mins by spectrophotometry; format: functional
[16] = Reducing power of the compound assessed as reducing Fe3+ power at 0.15 to 1.2 mM using potassium ferricyanide in pH 6.6 KH2PO4-K2HPO4 buffer by UV spectrophotometry; format: physicochemical; settings: pH 6.6, 1200 µM
[17] = Thermal stability of the compound assessed as drug degradation by measuring compound weight loss at 217 to 600 degC; format: physicochemical; settings: read-out: Drug degradation
[18] = Ratio of solubility of DHQ to solubility of test compound in water at pH 5.7 under nitrogen and sheltered from light condition incubated for 1 hr; format: physicochemical; settings: buffer, pH 5.7, 1 h
[19] = Dissolution of the compound at 0.12 mg measured at 360 mins by UV spectrophotometry; format: physicochemical; settings: 6 h
[20] = tested on: HEK293; experiment: Potency index, ratio of cell growth stimulation activity of DHQ to cell growth stimulation activity of test compound for stimulation of cell growth in HEK293 cells assessed as cell growth rate at 200 uM incubated for 48 hrs by MTT assay; format: functional, Homo sapiens

Compound | solubility at 1 h [3] | Activity [4] | solubility at 1 h [5] | EC50 [6] | selectivity ratio at 48 h [7] | Activity [8] | growth at 200 µM [9] | Activity [10] | EC50 [10] | Activity [11] | Activity [12] | IC50 [13] | Activity [14] | IC50 [15] | Activity [16] | also measured
O=C1c2c(O)cc(O)cc2O[C@H](c2ccc(O)c(O)c2)[C@H]1O [(+)-TAXIFOLIN] | 1200 µg/mL (≈ 3940 µM) | 13.8% | 20 µg/mL (≈ 65.7 µM) | 671 µM | 5.6 | Active | 22.6% | Dose-dependent effect | 125 µM | Active | 88.7% | 500 µg/mL (≈ 1640 µM) | 84.9% | 48 µM | Dose-dependent effect | degraded [1]: 10.1%; degraded [2]: 43.4%
COc1cccc2c1cc([N+](=O)[O-])c1c(C(=O)O)cc3c(c12)OCO3 [ARISTOLOCHIC ACID] |  |  |  | 118 µM |  |  |  |  |  |  |  |  |  |  |  | 
O=C1O[C@H]([C@@H](O)CO)C(O)=C1O [ASCORBIC ACID] |  |  |  |  |  |  |  |  |  |  |  |  |  | 42 µM | Dose-dependent effect | 
O=C(O)C1CCCN1Cc1c(O)c(CN2CCCC2C(=O)O)c2c(c1O)C(=O)[C@@H](O)[C@H](c1ccc(O)c(O)c1)O2 (some centres undefined) | 19500 µg/mL (≈ 35000 µM) | 87.1% | 210 µg/mL (≈ 376 µM) | 820 µM | 7 | Active | 54.5% | Dose-dependent effect | 138 µM | Active | 85.7% | 22 µg/mL (≈ 39.4 µM) | 98.3% | 42 µM | Dose-dependent effect | degraded [17]: 64.8%; Ratio [18]: 16; Activity [19]: 83.78%; Ratio [20]: 2.5
